These results are taken from US11465987B2, “Compounds for treatment of cancer” (ONCTERNAL THERAPEUTICS, INC., priority 2012, dated 2022).

Structures are written as SMILES. A value given as a limit tells only on which side of the number the result lay.

In the first test the test system is PC-3 human prostate cancer cell line. Put plainly: cells. Particulars: Homo sapiens, read-out: IC50 PC-3. From the text: Cells were stained with SRB solution.
Consider `COc1cc(/C(=C\C#N)c2csc(-c3ccccc3)n2)cc(OC)c1OC` [2c-cis, (E)-3-(2-phenylthiazol-4-yl)-3-(3,4,5-trimethoxyphenyl)acrylonitrile], for which the IC50 was around 10000 nM.

Consider `COc1cc(/C(=C/C#N)c2csc(-c3ccccc3)n2)cc(OC)c1OC` [2c-trans, (Z)-3-(2-phenylthiazol-4-yl)-3-(3,4,5-trimethoxyphenyl)acrylonitrile], for which the IC50 was 890 nM.

For `COc1cc(/C=C/c2csc(-c3ccccc3)n2)cc(OC)c1OC` [3b, (E)-2-Phenyl-4-(3,4,5-trimethoxystyryl)thiazole], the IC50 was above 10000 nM.

Consider `COc1cc(C(=O)[C@@H]2CSC(c3ccc(O[Si](C)(C)C(C)(C)C)cc3)=N2)cc(OC)c1OC` [58a, (R)-(2-(4-(tert-Butyldimethylsilyloxy)phenyl)-4,5-dihydrothiazol-4-yl)(3,4,5-trimethoxyphenyl)methanone], for which the IC50 worked out at 183 ± 24 nM.

For `COc1cc(C(=O)c2csc(-c3cc4ccccc4[nH]3)n2)cc(OC)c1OC` [62a, (2-(1H-indol-2-yl)thiazol-4-yl)(3,4,5-trimethoxyphenyl)methanone], the IC50 amounted to 24 nM.

Staying with this test, now noted: Homo sapiens, read-out: IC50 PC-3, SRB assay, prostate cancer PC-3.
Consider `COc1cc(C(=O)c2cc(-c3ccccc3)n[nH]2)cc(OC)c1OC` [1k, (3-Phenyl-1H-pyrazol-5-yl)(3,4,5-trimethoxyphenyl)methanone], for which the IC50 was found to be 101 nM.

As for `COc1cc(C(=C(C)C)c2csc(-c3ccccc3)n2)cc(OC)c1OC` [2a, 4-(2-Methyl-1-(3,4,5-trimethoxyphenyl)prop-1-enyl)-2-phenylthiazole], the IC50 worked out at 2470 nM.

Take `COc1cc(/C(=N/N)c2csc(-c3ccccc3)n2)cc(OC)c1OC` [2d-cis, (Z)-4-(hydrazono(3,4,5-trimethoxyphenyl)methyl)-2-phenylthiazole]: the IC50 worked out at 1120 nM.

`COc1cc(/C(=N\N)c2csc(-c3ccccc3)n2)cc(OC)c1OC` [2d-trans, (E)-4-(hydrazono(3,4,5-trimethoxyphenyl)methyl)-2-phenylthiazole]: the IC50 was 1040 nM.

In the case of `CO/N=C(/c1cc(OC)c(OC)c(OC)c1)c1csc(-c2ccccc2)n1` [2f-cis, (Z)-(2-Phenylthiazol-4-yl)(3,4,5-trimethoxyphenyl)methanone O-methyl oxime], the IC50 was above 10000 nM.

With `CO/N=C(\c1cc(OC)c(OC)c(OC)c1)c1csc(-c2ccccc2)n1` [2f-trans, (E)-(2-Phenylthiazol-4-yl)(3,4,5-trimethoxyphenyl)methanone O-methyl oxime], the IC50 is above 10000 nM.

With `COc1cc(C(=O)Nc2csc(-c3ccccc3)n2)cc(OC)c1OC` [2h, 3,4,5-Trimethoxy-N-(2-phenylthiazol-4-yl)benzamide], the IC50 is above 10000 nM.

Take `COc1cc(-c2csc(-c3ccccc3)n2)cc(OC)c1OC` [2i, 2-Phenyl-4-(3,4,5-trimethoxyphenyl)thiazole]: the IC50 was above 10000 nM.

Take `COc1cc(S(=O)(=O)c2cccc(-c3ccccc3)c2)cc(OC)c1OC` [4b, 3-(3,4,5-Trimethoxyphenylsulfonyl)biphenyl]: the IC50 was above 10000 nM.

On to `COc1cc([S+]([O-])c2cccc(-c3ccccc3)c2)cc(OC)c1OC` (centres unmarked) [4c, 3-(3,4,5-Trimethoxyphenylsulfinyl)biphenyl], for which the IC50 was above 10000 nM.

For `COc1cc(NS(=O)(=O)c2cccc(-c3ccccc3)c2)cc(OC)c1OC` [4d, N-(3,4,5-Trimethoxyphenyl)biphenyl-3-sulfonamide], the 50% inhibitory concentration (IC50) is above 10000 nM.

With `COc1cc(C(=O)c2csc(Nc3ccccc3)n2)cc(OC)c1OC` [5a, (2-(phenylamino)thiazol-4-yl)(3,4,5-trimethoxyphenyl)methanone], the IC50 turned out to be 57 ± 3 nM.

Take `COc1cc(C(=O)c2csc(Nc3ccc(F)cc3)n2)cc(OC)c1OC` [5c, (2-(p-fluorophenylamino)thiazol-4-yl)(3,4,5-trimethoxyphenyl)methanone]: the IC50 is 43 ± 1 nM.

In the case of `COc1cc(C(=O)c2csc(Nc3ccc(Cl)cc3)n2)cc(OC)c1OC` [5d, (2-(4-chlorophenylamino)thiazol-4-yl)(3,4,5-trimethoxyphenyl)methanone], the IC50 was 33 ± 1 nM.

Turning to `COc1cc(C(=O)c2c[nH]c(Nc3ccccc3)n2)cc(OC)c1OC` [5e, (2-(phenylamino)-1H-imidazol-4-yl)(3,4,5-trimethoxyphenyl)methanone], the IC50 was above 1000 nM.

Regarding `COc1cc(C(=O)c2csc(-c3ccc(CNC(=O)OC(C)(C)C)cc3)n2)cc(OC)c1OC` [68a, tert-Butyl 4-(4-(3,4,5-trimethoxybenzoyl)thiazol-2-yl)benzylcarbamate], the IC50 was found to be 3100 nM.

Staying with this test, now noted: Homo sapiens, read-out: IC50 ± SEM, PC-3.
Consider `COc1cc(C(=O)c2cn(S(=O)(=O)c3ccccc3)c(-c3ccc4c(c3)cc(C(=O)c3cc(OC)c(OC)c(OC)c3)n4S(=O)(=O)c3ccccc3)n2)cc(OC)c1OC` [16xaa, (1-(phenylsulfonyl)-2-(1-(phenylsulfonyl)-2-(3,4,5-trimethoxybenzoyl)-1H-indol-5-yl)-1H-imidazol-4-yl)(3,4,5-trimethoxyphenyl)methanone], for which the IC50 is above 10000 nM.

The same test, now with this note: Homo sapiens, read-out: IC50 ± SEM, PC-3, Table 6A.
For `COc1cc(C(=NC#N)c2csc(-c3ccccc3)n2)cc(OC)c1O` [compound 32, N-((4-hydroxy-3,5-dimethoxyphenyl)(2-phenylthiazol-4-yl)methylene)cyanamide], the IC50 was determined as 2290 nM.

Still in this test, the particulars now being: Homo sapiens, read-out: IC50 ± SEM, PC-3, Table 12.
Take `CN(C)c1ccc(-c2nc(C(=O)c3ccc(F)cc3)c[nH]2)cc1` [12gb, (2-(4-(dimethylamino)phenyl)-1H-imidazol-4-yl)(4-fluorophenyl)methanone]: the IC50 is 81 nM.

Regarding `COc1cc(C(=O)c2c[nH]c(-c3ccc(C(F)(F)F)cc3)n2)cc(OC)c1OC` [12pa, (2-(4-(trifluoromethyl)phenyl)-1H-imidazol-4-yl)(3,4,5-trimethoxyphenyl)methanone], the IC50 amounted to 127 nM.

Regarding `O=C(c1cc(O)c(O)c(O)c1)c1c[nH]c(-c2cc(O)c(O)c(O)c2)n1` [13ea, (3,4,5-trihydroxyphenyl)(2-(3,4,5-trihydroxyphenyl)-1H-imidazol-4-yl)methanone], the IC50 is above 10000 nM.

The test is the same for the next values; noted with them: Homo sapiens, read-out: IC50 ± SEM, PC-3, Table 13.
Take `COc1ccc(C(=O)c2cn(S(=O)(=O)c3ccccc3)c(-c3ccccc3)n2)cc1` [11ab, (4-methoxyphenyl)(2-phenyl-1-(phenylsulfonyl)-1H-imidazol-4-yl)methanone]: the IC50 is above 10000 nM.

Consider `COc1cccc(C(=O)c2cn(S(=O)(=O)c3ccccc3)c(-c3ccccc3)n2)c1` [11ac, (3-methoxyphenyl)(2-phenyl-1-(phenylsulfonyl)-1H-imidazol-4-yl)methanone], for which the half-maximal inhibitory concentration (IC50) is above 10000 nM.

As to `O=C(c1cccc(F)c1)c1cn(S(=O)(=O)c2ccccc2)c(-c2ccccc2)n1` [11ag, (3-fluorophenyl)(2-phenyl-1-(phenylsulfonyl)-1H-imidazol-4-yl)methanone], the half-inhibitory concentration (IC50) is above 10000 nM.

Take `Cc1ccc(C(=O)c2cn(S(=O)(=O)c3ccccc3)c(-c3ccccc3)n2)cc1` [11ah, (2-phenyl-1-(phenylsulfonyl)-1H-imidazol-4-yl)(p-tolyl)methanone]: the IC50 was above 10000 nM.

`Cc1ccc(-c2nc(C(=O)c3ccc(F)cc3)cn2S(=O)(=O)c2ccccc2)cc1` [11db, (4-fluorophenyl)(1-(phenylsulfonyl)-2-(p-tolyl)-1H-imidazol-4-yl)methanone]: the IC50 was 80 nM.

Consider `COc1ccc(-c2nc(C(=O)c3ccc(F)cc3)cn2C)cc1` [12cba, (4-fluorophenyl)(2-(4-methoxyphenyl)-1-methyl-1H-imidazol-4-yl)methanone], for which the IC50 is above 10000 nM.
